{"source": "patent US20250295798A1", "about": "“LIGAND-DRUG CONJUGATE OF EXATECAN ANALOGUE, AND MEDICAL USE THEREOF” (BeiGene Switzerland GmbH, priority 2022, published 2025)", "assay_type_in_all_cases": "cell-based, human", "key": {"MDA-MB-453": {"system": "MDA-MB-453", "assay": "Compounds cellular killing in MDA-MB-453", "settings": "for EC50 / Emax: Homo sapiens; for killing activity compared with 1-B: MDA-MB-453, FIG. 1", "procedure": "Seeding cells MDA-MB-453 (2E3/well) into 96-well plate (Greiner: 655090), 100 ul/well. Incubation at 37° C., 5% CO2, overnight.\nAdding the fresh growth-medium containing the varying concentrations of compounds, 50 ul/well.\nIncubation at 37° C., 5% CO2, 6 days.\nThe cell viability detected by Cell Titer-Glo (Promega, G7573). Add 70 µL/well of CellTiter-Glo® Reagent in each well.\nAllow the plates to incubate at room temperature for 10 minutes to stabilize luminescent signal.\nAnalyze with Microplate Reader."}, "A375": {"system": "A375", "assay": "Compounds cellular killing in A375", "settings": "Homo sapiens, A375, 6 days, Cell Titer-Glo", "summary_of_the_method": "(§1)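 A375 (1E3/well) or Calu-6 (2E3/well) cells were seeded overnight, then exposed to varying compound concentrations for 6 days at 37 °C, 5% CO2. Viability was read by CellTiter-Glo luminescence.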"}, "Calu-6": {"system": "Calu-6", "assay": "Compounds cellular killing in Calu-6", "settings": "Homo sapiens, Calu-6, 6 days, Cell Titer-Glo", "summary_of_the_method": "as §1"}}, "note": "Structures can show the parent of a compound that is named as a salt. Where two headings read alike, the source gives them in different places.", "data": [{"smiles": "CC[C@@]1(O)C(=O)OCc2c1cc1n(c2=O)Cc2c-1nc1cc(F)c(C)c3c1c2[C@@H](N1CCN(C)CC1)CC3", "note": "[Example 1-7, (1S,9S)-9-ethyl-5-fluoro-9-hydroxy-4-methyl-1-(4-methylpiperazin-1-yl)-1,2,3,9,12,15-hexahydro-10H,13H-benzo[de]pyrano[3′,4′:6,7]indolizino[1,2-b]quinoline-10,13-dione]", "values": [{"measurement": "EC50", "setting": "MDA-MB-453; MDA-MB-453, […]", "value": 1.2, "unit": "nM"}, {"measurement": "Emax", "setting": "MDA-MB-453; MDA-MB-453, […]", "value": 96.8, "unit": "%"}, {"measurement": "killing activity compared with 1-B", "setting": "MDA-MB-453", "value": "comparable killing activity to 1-B"}]}, {"smiles": "CC[C@@]1(O)C(=O)OCc2c1cc1n(c2=O)Cc2c-1nc1cc(F)c(C)c3c1c2[C@@H](N(C)C)CC3", "note": "[Example 1-5, (1S,9S)-1-(dimethylamino)-9-ethyl-5-fluoro-9-hydroxy-4-methyl-1,2,3,9,12,15-hexahydro-10H,13H-benzo[de]pyrano[3′,4′:6,7]indolizino[1,2-b]quinoline-10,13-dione]", "values": [{"measurement": "EC50", "setting": "MDA-MB-453; MDA-MB-453, […]", "value": 1.3, "unit": "nM"}, {"measurement": "Emax", "setting": "MDA-MB-453; MDA-MB-453, […]", "value": 93.3, "unit": "%"}, {"measurement": "killing activity compared with 1-B", "setting": "MDA-MB-453", "value": "comparable killing activity to 1-B"}]}, {"smiles": "CC[C@@]1(O)C(=O)OCc2c1cc1n(c2=O)Cc2c-1nc1cc(F)c(C)c3c1c2[C@@H](N)CC3", "note": "[Example 1-B, reference compound]", "values": [{"measurement": "Emax", "setting": "A375; A-375", "value": 100, "unit": "%"}, {"measurement": "Emax", "setting": "Calu-6; Calu-6, […]", "value": 98.4, "unit": "%"}, {"measurement": "EC50", "setting": "MDA-MB-453; MDA-MB-453, 6 days, Cell Titer-Glo, read-out: EC50", "value": 0.9, "unit": "nM"}, {"measurement": "Emax", "setting": "MDA-MB-453; MDA-MB-453, 6 days, Cell Titer-Glo, read-out: Emax (%)", "value": 99.4, "unit": "%"}]}, {"smiles": "CC[C@@]1(O)C(=O)OCc2c1cc1n(c2=O)Cc2c-1nc1ccc(F)c3c1c2[C@@H](N)CC3", "note": "[Example 1-12, (1S,9S)-1-amino-9-ethyl-4-fluoro-9-hydroxy-1,2,3,9,12,15-hexahydro-10H,13H-benzo[de]pyrano[3′,4′:6,7]indolizino[1,2-b]quinoline-10,13-dione]", "values": [{"measurement": "EC50", "setting": "A375; A-375, […]", "value": 5.5, "unit": "nM"}, {"measurement": "Emax", "setting": "A375; A-375, […]", "value": 99.8, "unit": "%"}, {"measurement": "EC50", "setting": "Calu-6; Calu-6, […]", "value": 2.1, "unit": "nM"}, {"measurement": "Emax", "setting": "Calu-6; Calu-6, […]", "value": 99.5, "unit": "%"}]}, {"smiles": "CC[C@@]1(O)C(=O)OCc2c1cc1n(c2=O)Cc2c-1nc1cc(F)c(C)c3c1c2[C@@H](NC(=O)C1CCC1CO)CC3", "note": "(stereo partly drawn) [Example 2-2, N-((1S,9S)-9-ethyl-5-fluoro-9-hydroxy-4-methyl-10,13-dioxo-2,3,9,10,13,15-hexahydro-1H,12H-benzo[de]pyrano[3′,4′:6,7]indolizino[1,2-b]quinolin-1-yl)-2-(hydroxymethyl)cyclobutane-1-carboxamide]", "values": [{"measurement": "EC50", "setting": "A375; A-375, […]", "value": 5.2, "unit": "nM"}, {"measurement": "Emax", "setting": "A375; A-375, […]", "value": 99.9, "unit": "%"}, {"measurement": "EC50", "setting": "Calu-6; Calu-6, […]", "value": 1.3, "unit": "nM"}, {"measurement": "Emax", "setting": "Calu-6; Calu-6, […]", "value": 98.7, "unit": "%"}]}, {"smiles": "CC[C@@]1(O)C(=O)OCc2c1cc1n(c2=O)Cc2c-1nc1cc3c(c4c1c2[C@@H](N)CC4)OC(F)(F)O3", "note": "[Example 1-16, (1S,10S)-1-amino-10-ethyl-5,5-difluoro-10-hydroxy-1,2,3,10,13,16-hexahydro-11H,14H-benzo[de][1,3]dioxolo[4,5-g]pyrano[3′,4′:6,7]indolizino[1,2-b]quinoline-11,14-dione 2,2,2-trifluoroacetate salt]", "values": [{"measurement": "EC50", "setting": "A375; A-375, […]", "value": 1.6, "unit": "nM"}, {"measurement": "Emax", "setting": "A375; A-375, […]", "value": 98.5, "unit": "%"}, {"measurement": "EC50", "setting": "Calu-6; Calu-6, […]", "value": 0.6, "unit": "nM"}, {"measurement": "Emax", "setting": "Calu-6; Calu-6, […]", "value": 98.5, "unit": "%"}]}, {"smiles": "CC[C@@]1(O)C(=O)OCc2c1cc1n(c2=O)Cc2c-1nc1cc(Cl)cc3c1c2[C@H](NC(=O)CO)CC3", "note": "[Example 2-13, N-((1R,9S)-5-chloro-9-ethyl-9-hydroxy-10,13-dioxo-2,3,9,10,13,15-hexahydro-1H,12H-benzo[de]pyrano[3′,4′:6,7]indolizino[1,2-b]quinolin-1-yl)-2-hydroxyacetamide]", "values": [{"measurement": "EC50", "setting": "A375; A-375, […]", "value": 7.9, "unit": "nM"}, {"measurement": "Emax", "setting": "A375; A-375, […]", "value": 99.6, "unit": "%"}, {"measurement": "EC50", "setting": "Calu-6; Calu-6, […]", "value": 5.8, "unit": "nM"}, {"measurement": "Emax", "setting": "Calu-6; Calu-6, […]", "value": 98.4, "unit": "%"}]}, {"smiles": "CC[C@@]1(O)C(=O)OCc2c1cc1n(c2=O)Cc2c-1nc1cc(F)c(C)c3c1c2C(CNCCO)CC3", "note": "(stereo partly drawn) [Example 2-53, Nbenzyl (9S)-9-ethyl-5-fluoro-9-hydroxy-1-(((2-hydroxyethyl)amino)methyl)-4-methyl-1,2,3,9,12,15-hexahydro-10H,13H-benzo[de]pyrano[3′,4′:6,7]indolizino[1,2-b]quinoline-10,13-dione]", "values": [{"measurement": "EC50", "setting": "A375; A-375, […]", "value": 5.1, "unit": "nM"}, {"measurement": "Emax", "setting": "A375; A-375, […]", "value": 99.9, "unit": "%"}, {"measurement": "EC50", "setting": "Calu-6; Calu-6, […]", "value": 1.6, "unit": "nM"}, {"measurement": "Emax", "setting": "Calu-6; Calu-6, […]", "value": 98.7, "unit": "%"}]}, {"smiles": "CC[C@@]1(O)C(=O)OCc2c1cc1n(c2=O)Cc2c-1nc1cc(F)c(C)c3c1c2C(CCCO)CC3", "note": "(stereo partly drawn) [Example 2-14, (9S)-9-ethyl-5-fluoro-9-hydroxy-1-(3-hydroxypropyl)-4-methyl-1,2,3,9,12,15-hexahydro-10H,13H-benzo[de]pyrano[3′,4′:6,7]indolizino[1,2-b]quinoline-10,13-dione]", "values": [{"measurement": "EC50", "setting": "A375; A-375", "value": 0.3, "unit": "nM"}, {"measurement": "Emax", "setting": "A375; A-375", "value": 100, "unit": "%"}, {"measurement": "Emax", "setting": "Calu-6; Calu-6, […]", "value": 99, "unit": "%"}, {"measurement": "EC50", "setting": "Calu-6", "value": 0.1, "unit": "nM"}]}, {"smiles": "CC[C@@]1(O)C(=O)OCc2c1cc1n(c2=O)Cc2c-1nc1cc(F)c(C)c3c1c2[C@@H](N1CCNCC1)CC3", "note": "[Example 1-6, (1S,9S)-9-ethyl-5-fluoro-9-hydroxy-4-methyl-1-(piperazin-1-yl)-1,2,3,9,12,15-hexahydro-10H,13H-benzo[de]pyrano[3′,4′:6,7]indolizino[1,2-b]quinoline-10,13-dione]", "values": [{"measurement": "EC50", "setting": "MDA-MB-453; MDA-MB-453, […]", "value": 3.3, "unit": "nM"}, {"measurement": "Emax", "setting": "MDA-MB-453; MDA-MB-453, […]", "value": 93.4, "unit": "%"}, {"measurement": "killing activity compared with 1-B", "setting": "MDA-MB-453", "value": "less potent than 1-B"}]}]}
